According to patent US20150005506A1, “THERAPEUTIC AGENT FOR DIABETES” (Teijin Pharma Limited, priority 2012, published 2015):

How the values were obtained:
Assay type in all cases: in vivo, C57BL/6J mice
[1] = tested on: mice loaded with a high-fat diet; experiment: Blood glucose levels 2 hours after glucose load in mice loaded with high-fat diet; settings: 0.5 g/kg glucose i.p. after 4 hours starvation, 3 mg/kg/day in drinking water, 12 weeks
Method: (§1) Male C57BL/6J mice (age of 8 weeks) were loaded with a high-fat diet, with the proportion of fat-derived calories over total calories (Fat Kcal %) of 60%. Herewith, insulin resistance, impaired glucose tolerance, and diabetes mellitus are developed. In a group of febuxostat treatment (Febuxostat group), febuxostat was dissolved in tap water at a dose of 3 mg/kg/day and was administered to the mice as daily drinking water at the same time of the initiation of loading with a high-fat diet. Mice in the Vehicle group were given tap water. Moreover, in the normal animal group, mice were reared with a regular diet and tap water in the same period as the Febuxostat group and the Vehicle group. Ten weeks after the start of the high-fat diet and the administration of febuxostat, an insulin tolerance test was carried out to assess random blood glucose levels and insulin resistance. More specifically, 1.5 U/kg of insulin was intraperitoneally administered to the mice and blood glucose levels were measured at 0 minute, 30 minutes, 60 minutes, 90 minutes, 120 minutes after the administration of insulin. […] Blood glucose levels were measured at 120 minutes after the administration of glucose. […]

[2] = tested on: mice loaded with a high-fat diet; experiment: Glucose tolerance test in mice loaded with high-fat diet (Example 2); settings: 3 mg/kg/day in drinking water, 12 weeks
Method: Male C57BL/6J mice (8 week-old) were loaded with a high-fat diet with the proportion of fat-derived calories over the total calories (Fat Kcal %) of 60%. Herewith, insulin resistance, impaired glucose tolerance, and diabetes mellitus are developed. At the same time of the initiation of loading high-fat diet, febuxostat dissolved in tap water at 3 mg/kg/day was administered to mice as drinking water in the Febuxostat group and mice in the Vehicle group were reared by administration of tap water as drinking water. Twelve weeks after the loading of a high-fat diet and the administration of febuxostat, a glucose tolerance test was carried out to assess impaired glucose tolerance. More specifically, the mice were made to fast for 4 hours; thereafter 0.5 g/kg of glucose was intraperitoneally administered to the mice. And blood sampling was conducted at 0 minute, 15 minutes, 30 minutes, 60 minutes, 90 minutes, and 120 minutes after glucose load respectively to measure glucose levels.

[3] = tested on: mice loaded with a high-fat diet; experiment: Random blood glucose level in mice loaded with high-fat diet; settings: 3 mg/kg/day in drinking water, 10 weeks, mean ± standard deviation, n = 9 to 10
Method: as §1

[4] = tested on: mice loaded with a high-fat diet; experiment: Insulin tolerance test in mice loaded with high-fat diet; settings: 3 mg/kg/day in drinking water, 10 weeks
Method: Male C57BL/6J mice (age of 8 weeks) were loaded with a high-fat diet, with the proportion of fat-derived calories over total calories (Fat Kcal %) of 60%. Herewith, insulin resistance, impaired glucose tolerance, and diabetes mellitus are developed. In a group of febuxostat treatment (Febuxostat group), febuxostat was dissolved in tap water at a dose of 3 mg/kg/day and was administered to the mice as daily drinking water at the same time of the initiation of loading with a high-fat diet. Mice in the Vehicle group were given tap water. Moreover, in the normal animal group, mice were reared with a regular diet and tap water in the same period as the Febuxostat group and the Vehicle group. Ten weeks after the start of the high-fat diet and the administration of febuxostat, an insulin tolerance test was carried out to assess random blood glucose levels and insulin resistance. More specifically, 1.5 U/kg of insulin was intraperitoneally administered to the mice and blood glucose levels were measured at 0 minute, 30 minutes, 60 minutes, 90 minutes, 120 minutes after the administration of insulin. Moreover, 12 weeks after the initiation of the high-fat diet and the administration of febuxostat, 0.5 g/kg of glucose was intraperitoneally administered to the mice starved for 4 hours to assess 2-hour blood glucose levels after glucose load. Blood glucose levels were measured at 120 minutes after the administration of glucose. Moreover, on the last day of the administration, blood sampling was carried out to measure blood uric acid levels.

[5] = tested on: mice loaded with a high-fat diet; experiment: Blood uric acid levels in mice loaded with high-fat diet; settings: last day of administration, 3 mg/kg/day in drinking water
Method: as §1

## Cc1nc(-c2ccc(OCC(C)C)c(C#N)c2)sc1C(=O)O [Febuxostat, 2-(3-cyano-4-isobutyloxyphenyl)-4-methyl-5-thiazole carboxylic acid]
[1]
  Blood glucose levels 2 hours after glucose load: 396 ± 18 mg/dL
[2]; 0 min after 0.5 g/kg glucose i.p., n = 5 to 6
  Blood glucose levels: 214 ± 17 mg/dL
[2]; 15 min after 0.5 g/kg glucose i.p.
  Blood glucose levels: 368 ± 29 mg/dL
[2]; 30 min after 0.5 g/kg glucose i.p.
  Blood glucose levels: 378 ± 26 mg/dL
[2]; 60 min after 0.5 g/kg glucose i.p.
  Blood glucose levels: 349 ± 35 mg/dL
[2]; 90 min after 0.5 g/kg glucose i.p.
  Blood glucose levels: 323 ± 43 mg/dL
[2]; 120 min after 0.5 g/kg glucose i.p.
  Blood glucose levels: 279 ± 31 mg/dL
[3]
  Random blood glucose level: 244 ± 7 mg/dL
[4]; 30 min after 1.5 U/kg insulin i.p.
  Ratio of blood glucose levels relative to the value before insulin administration: 66 ± 4%
[4]; 60 min after 1.5 U/kg insulin i.p.
  Ratio of blood glucose levels relative to the value before insulin administration: 62 ± 3%
[4]; 90 min after 1.5 U/kg insulin i.p.
  Ratio of blood glucose levels relative to the value before insulin administration: 71 ± 4%
[4]; 120 min after 1.5 U/kg insulin i.p.
  Ratio of blood glucose levels relative to the value before insulin administration: 91 ± 5%
[4]; after 1.5 U/kg insulin i.p.
  Blood glucose level AUC (0-2 hour): 371 ± 17 mg·h/dL
[5]
  Blood uric acid levels: 0.7 ± 0.1 mg/dL
